From paper PMC8767159, “Multiparameter Optimization of Trypanocidal Cruzain Inhibitors With In Vivo Activity and Favorable Pharmacokinetics” (Frontiers in Pharmacology, 2022)
Where two headings read alike, the source gives them in different places.

Experiments:
cruzain = biological target: T1, cruzain (Trypanosoma cruzi, UniProt P25779); assay: Cruzain enzyme inhibition assay (cleavage of fluorogenic substrate Z-FR-AMC); type: biochemical; conditions: for inhibition at 100 µM: compound 100 µM, mean of three measures; for Mechanism of cruzain inhibition (Lineweaver-Burk plots): eight substrate and four inhibitor concentrations; for % cruzain inhibition, 0% Triton / % cruzain inhibition, 0.01% Triton / % cruzain inhibition, 0.1% Triton: Table S1; for % cruzain inhibition, 0% Triton: 0% Triton X-100; for % cruzain inhibition, 0.01% Triton: 0.01% Triton X-100; for % cruzain inhibition, 0.1% Triton: 0.1% Triton X-100
T1 construct: made in house; host or cells: Escherichia coli (strain M15)
T1 sequence (P25779 123-337 limits assumed): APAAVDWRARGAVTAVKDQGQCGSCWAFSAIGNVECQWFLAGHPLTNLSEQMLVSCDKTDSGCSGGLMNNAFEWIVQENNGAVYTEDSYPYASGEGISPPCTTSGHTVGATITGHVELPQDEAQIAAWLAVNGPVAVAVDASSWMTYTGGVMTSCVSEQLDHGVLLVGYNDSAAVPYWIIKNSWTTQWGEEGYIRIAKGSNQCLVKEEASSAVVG
Description: Pro-cruzain truncated at the C-terminus was expressed and purified using a previously described protocol ([Ferreira et al., 2019]). Escherichia coli (strain M15) cultures were grown overnight at 37°C and 200 rpm in Luria Bertani (LB) medium supplemented with ampicillin (100 μg/ml) and kanamycin (50 μg/ml). Next, the cultures were diluted 10-fold in fresh LB medium supplemented with 0.5 M NaCl, 0.2% glucose, 1 mM betaine, 0.5 M sorbitol, 100 μg/ml ampicillin, and 50 μg/ml kanamycin and incubated at 37°C and 200 rpm. At an optical density (OD600) of 0.9, the cultures were incubated at 47°C for 20 min to promote the expression of chaperones. Then, the expression of cruzain was induced by adding isopropyl β-D-thiogalactopyranoside (IPTG) to a final concentration of 0.2 mM, which was followed by overnight incubation of the cultures at 20°C and 200 rpm. Next, the cultures were centrifuged (5,000 rpm, 30 min, 4°C), and the cells were suspended in 50 ml of lysis buffer (300 mM NaCl, 50 mM Tris-HCl, and 1.6 mg/ml lysozyme, pH 8.0) per liter of culture and lysed by sonication (12 cycles of 30 s). This cell lysate was centrifuged (9,000 rpm, 30 min, 4°C), and the supernatant was collected. Cruzain was precipitated by incubation with 35% ammonium sulfate (2 h), and this suspension was centrifuged at 9,000 rpm for 30 min at 4°C. The precipitated cruzain was resuspended in lysis buffer, and the sample was dialyzed to eliminate ammonium sulfate. The soluble fraction of the dialysate was loaded on a Ni−NTA column (Qiagen, Hilden, Germany), and the contaminants were washed using washing buffer (300 mM NaCl, 50 mM Tris-HCl, and 10 mM imidazole, pH 8.0). Cruzain was eluted by applying an increasing imidazole gradient: 25, 50, 75, 100, and 250 mM. The fractions containing cruzain were pooled together and dialyzed against 1.5 L of 0.1 M acetate buffer, pH 5.5, and then concentrated to 0.5 mg/ml. Pro-cruzain was activated by incubation with activation buffer (100 mM sodium acetate, pH 5.5, 10 mM EDTA, 5 mM DTT, and 1 M NaCl) at 37°C. […] After activation, the enzyme was diluted 20-fold in binding buffer (20 mM sodium phosphate and 150 mM NaCl, pH 7.2) and added to thiopropyl Sepharose 6B resin (GE Healthcare Life Sciences, Pittsburgh, PA). After overnight incubation at 4°C, the resin was loaded on a column, and cruzain was eluted with binding buffer supplemented with 20 mM DTT. Fractions containing cruzain were pooled together and stored in 0.1 M sodium acetate, pH 5.5, at −80°C.
Cruzain activity was followed by monitoring the cleavage of the fluorogenic substrate Z-Phe-Arg-aminomethyl coumarin (Z-FR-AMC), as previously described ([Ferreira et al., 2019]), using 96-well flat-bottom black plates and wavelengths of 355 nm for excitation and 460 nm for emission. All cruzain assays were performed in 0.1 M sodium acetate buffer with 5 mM dithiothreitol (DTT) and 0.01% Triton X-100, pH 5.5. […] The cleavage of the substrate was monitored for 5 min, and the activity was calculated based on the initial reaction rates compared with the rate of a DMSO control at 30°C. The IC50 values were independently calculated by considering the rate measurements for at least six inhibitor concentrations, each evaluated in triplicate. To determine the mechanism of cruzain inhibition, eight concentrations of the substrate Z-FR-AMC and four concentrations of the inhibitor were employed, each in triplicate. Kinetic parameters were determined using the SigmaPlot (Systat Software Inc., Erkrath, Germany) enzyme kinetics module. Compounds were tested in two or three independent experiments. All enzyme assays were performed using varying Triton X-100 concentrations (0, 0.01, and 0.1%) ([Ferreira et al., 2009]). Compound concentrations were 100 μM in the single-dose percentage inhibition assays.

[1] = Cytotoxicity MTS assay in HFF-1 fibroblasts; type: cell-based; conditions: human HFF-1 fibroblasts
Description: The synthesized compounds were evaluated for their cytotoxicity against HFF-1 cells using the MTS assay (Promega, Madison, WI) ([Barltrop et al., 1991]) as previously described ([Ferreira et al., 2019]). HFF-1 fibroblasts were plated at 2 × 10^3/well in 96-well culture plates in RPMI 1640 without phenol red enriched with 10% FCS and incubated overnight at 37°C and 5% CO2. Next, 7 concentrations (0.1–100 µM) of the compounds were added in 3-fold serial dilutions, each concentration in triplicate, and the plates were incubated for 72 h at 37°C and 5% CO2. Next, 20 µl of MTS was added to each well, and the plates were incubated for an additional 4 h at 37°C and 5% CO2. The absorbance was measured at 490 nm using a spectrophotometer, and the data were transferred to SigmaPlot 10.0 (Systat Software Inc., Erkrath, Germany) to determine the IC50 values. Doxorubicin (Sigma–Aldrich) was used as a positive control, and untreated wells (100% growth) were used as negative controls in all plates. All compounds were tested in two independent assays.

[2] = 1.5 nM cruzain, 5.0 µM Z-FR-AMC, mean ± SD of 2–3 assays, read-out: IC50 (µM) against cruzain
[3] = Table S2, substrate 2.5 µM, read-out: IC50 (µM) cruzain at [S] 2.5 µM
[4] = Table S2, substrate 5 µM, read-out: IC50 (µM) cruzain at [S] 5 µM
[5] = Table S2, substrate 10 µM, read-out: IC50 (µM) cruzain at [S] 10 µM
[6] = Table S2, substrate 15 µM, read-out: IC50 (µM) cruzain at [S] 15 µM
[7] = Table S2, substrate 20 µM, read-out: IC50 (µM) cruzain at [S] 20 µM
[8] = Table S2, substrate 40 µM, read-out: IC50 (µM) cruzain at [S] 40 µM

Row | Compound | IC50 (cruzain; [2]) [µM] | inhibition at 100 µM (cruzain) [%] | IC50 at 72 h [1] [µM] | also measured
1 | O=C(COc1ccccc1)NCCc1nc2ccccc2n1Cc1ccccc1 [Compound 26] | 1.1 ± 0.2 | 77 | > 100 | IC50 (cruzain; [3]): 1.6 ± 0.1 µM; IC50 (cruzain; [4]): 1.8 ± 0.1 µM; IC50 (cruzain; [5]): 1.9 ± 0.2 µM; IC50 (cruzain; [6]): 1.4 ± 0.5 µM; IC50 (cruzain; [7]): 2.4 ± 0.9 µM; IC50 (cruzain; [8]): 1.2 ± 0.5 µM; Mechanism of cruzain inhibition (Lineweaver-Burk plots) (cruzain): noncompetitive
2 | O=C(COc1ccc(Br)cc1)NCCc1nc2ccccc2[nH]1 [Compound 33] |  |  | > 100 | 
3 | C=CCCn1c(CCNC(=O)COc2ccccc2)nc2ccccc21 [Compound 27] | 13.7 ± 1.4 | 79 | > 100 | IC50 (cruzain; [3]): 12.4 ± 2.2 µM; IC50 (cruzain; [4]): 7.5 ± 1.2 µM; IC50 (cruzain; [5]): 14.7 ± 1.8 µM; IC50 (cruzain; [6]): 11.2 ± 1.5 µM; IC50 (cruzain; [7]): 10.2 ± 1.5 µM; IC50 (cruzain; [8]): 8.9 ± 3.1 µM; Mechanism of cruzain inhibition (Lineweaver-Burk plots) (cruzain): noncompetitive
4 | COCCn1c(CCNC(=O)COc2ccccc2)nc2ccccc21 [Compound 29] | 8.8 ± 1.8 | 79 |  | 
5 | O=C(COc1ccccc1Br)NCCc1nc2ccccc2n1CCOc1ccccc1Br [Compound 23] |  | 49 |  | % cruzain inhibition, 0% Triton (cruzain): 52.1 ± 1.3%; % cruzain inhibition, 0.01% Triton (cruzain): 53.2 ± 1.9%; % cruzain inhibition, 0.1% Triton (cruzain): 55.5 ± 5.2%
6 | O=C(COc1cccc(N2C(=O)CCC2=O)c1)NCCc1nc2ccccc2[nH]1 [Compound 6] |  | 38 |  | 
7 | O=C(COc1ccc(NC(=O)CCCO)cc1)NCCc1nc2ccccc2[nH]1 [Compound 5] |  | 87 | > 100 | 
8 | CC(=O)Nc1cccc(OCC(=O)NCCc2nc3ccccc3[nH]2)c1 [Compound 3] | 28.1 ± 3.1 | 70 | > 100 | 
9 | COc1ccc2cc(OCC(=O)NCCc3nc4ccccc4[nH]3)ccc2c1 [Compound 12] | 2.3 ± 0.6 | 100 |  | 
10 | C=CCCn1c(CCNC(=O)COc2ccccc2Cl)nc2ccccc21 [Compound 38] |  |  | > 100 | 
11 | O=C(COc1cccc([N+](=O)[O-])c1)NCCc1nc2ccccc2[nH]1 [Compound 8] | 13.5 ± 2.6 | 83 | > 100 | 
12 | O=C(COc1ccc2ccc(O)cc2c1)NCCc1nc2ccccc2[nH]1 [Compound 11] | 2.7 ± 0.7 | 96 |  | 
13 | O=C(COc1ccccc1)NCCc1nc2ccccc2n1-c1ccccc1 [Compound 30] | 8.6 ± 2.6 | 79 |  | 
14 | O=C(COc1ccccc1)NCCc1nc2ccccc2n1CCOc1ccccc1 [Compound 20] | 1.04 ± 0.7 | 92 | > 30 | % cruzain inhibition, 0% Triton (cruzain): 95.2 ± 0.6%; % cruzain inhibition, 0.01% Triton (cruzain): 95.9 ± 1.7%; % cruzain inhibition, 0.1% Triton (cruzain): 96.0 ± 1.1%; IC50 (cruzain; [3]): 0.5 ± 1.3 µM; IC50 (cruzain; [4]): 0.4 ± 1.2 µM; IC50 (cruzain; [5]): 1 ± 1.5 µM; IC50 (cruzain; [6]): 0.8 ± 1.7 µM; IC50 (cruzain; [7]): 0.3 µM; IC50 (cruzain; [8]): 0.5 ± 1.2 µM; Mechanism of cruzain inhibition (Lineweaver-Burk plots) (cruzain): noncompetitive
15 | Nc1cccc(OCC(=O)NCCc2nc3ccccc3[nH]2)c1 [Compound 9] | 18.2 ± 1.8 | 90 |  | 
16 | Cc1ccccc1OCC(=O)NCCc1nc2ccccc2n1CCOc1ccccc1Br [Compound 22] |  | 36 |  | 
17 | O=C(COc1ccc2c(C(=O)O)cccc2c1)NCCc1nc2ccccc2[nH]1 [Compound 15] | > 100 | 58 |  | 

Row | Compound | IC50 (cruzain; [2]) [µM] | inhibition at 100 µM (cruzain) [%] | IC50 at 72 h [1] [µM] | also measured
18 | O=C(COc1cccc(NC(=O)CCCO)c1)NCCc1nc2ccccc2[nH]1 [Compound 7] |  | 75 |  | 
19 | O=C(COc1ccccc1)NCCc1nc2ccccc2[nH]1 [Compound 1] | 10.9 ± 1 | 90 | > 100 | Mechanism of cruzain inhibition (Lineweaver-Burk plots) (cruzain): competitive
20 | O=C(COc1ccccc1)NCCc1nc2ccccc2n1CCCOc1ccccc1 [Compound 24] | 2.2 ± 1.2 | 81 | > 30 | % cruzain inhibition, 0% Triton (cruzain): 87.9 ± 0.7%; % cruzain inhibition, 0.01% Triton (cruzain): 82.6 ± 0.3%; % cruzain inhibition, 0.1% Triton (cruzain): 82.9 ± 3.5%; IC50 (cruzain; [3]): 1.7 ± 1.3 µM; IC50 (cruzain; [4]): 2.2 ± 1.3 µM; IC50 (cruzain; [5]): 2.2 ± 1.1 µM; IC50 (cruzain; [6]): 1.9 ± 1.8 µM; IC50 (cruzain; [7]): 2.5 ± 1.2 µM; IC50 (cruzain; [8]): 2.1 ± 0.9 µM; Mechanism of cruzain inhibition (Lineweaver-Burk plots) (cruzain): noncompetitive
21 | O=C(COc1ccccc1)NCCc1nc2ccccc2n1CCOc1ccccc1Br [Compound 19] |  | 72 |  | % cruzain inhibition, 0% Triton (cruzain): 73.4 ± 2.5%; % cruzain inhibition, 0.01% Triton (cruzain): 72.1 ± 1.7%; % cruzain inhibition, 0.1% Triton (cruzain): 77.5 ± 2.2%
22 | Cc1ccccc1OCC(=O)NCCc1nc2ccccc2[nH]1 [Compound 17] |  |  | > 100 | 
23 | O=C(Cn1ccnc1[N+](=O)[O-])NCc1ccccc1 [BZ, benznidazole, reference compound] |  |  | > 100 | 
24 | O=C(COc1ccc2cc(O)ccc2c1)NCCc1nc2ccccc2[nH]1 [Compound 10] | 3.4 ± 0.9 | 90 | > 100 | 
25 | O=C(COc1ccccc1[N+](=O)[O-])NCCc1nc2ccccc2[nH]1 [Compound 32] |  |  | > 100 | 
26 | O=C(COc1ccccc1Br)NCCc1nc2ccccc2[nH]1 [Compound 18] |  |  | > 100 | 
27 | O=C(COc1ccc2ccccc2c1)NCCc1nc2ccccc2[nH]1 [Compound 35] |  |  | > 100 | 
28 | CC(=O)Nc1ccc(OCC(=O)NCCc2nc3ccccc3[nH]2)cc1 [Compound 2] | 4.5 ± 0.5 | 79 | > 100 | 
29 | O=C(COc1ccc2ccccc2c1Br)NCCc1nc2ccccc2[nH]1 [Compound 34] |  |  | > 30 | 
30 | Cn1c(CCNC(=O)COc2ccccc2)nc2ccccc21 [Compound 25] | 8.6 ± 1.7 | 87 |  | Mechanism of cruzain inhibition (Lineweaver-Burk plots) (cruzain): competitive
31 | O=C(COc1ccccc1)NCCc1nc2ccccc2n1CCOCc1ccccc1 [Compound 21] | 1.69 ± 0.4 | 76 |  | % cruzain inhibition, 0% Triton (cruzain): 80.3 ± 1.4%; % cruzain inhibition, 0.01% Triton (cruzain): 85.5 ± 2.3%; % cruzain inhibition, 0.1% Triton (cruzain): 84.6 ± 1.3%
32 | Cc1ccccc1OCC(=O)NCCc1nc2ccccc2o1 [Compound 37] |  |  | > 100 | 
33 | NC(=O)Cn1c(CCNC(=O)COc2ccccc2)nc2ccccc21 [Compound 28] | 12.1 ± 2.4 | 81 | > 100 | 
34 | O=C(COc1ccc(N2C(=O)CCC2=O)cc1)NCCc1nc2ccccc2[nH]1 [Compound 4] |  | 20 |  | 
